Assay results reported in the supplement of paper PMC10307832.

Key:
Test in all cases: relative viability (nuclei count vs DMSO), 5 days (fraction); higher = more cells survive
NCI-H1651 = system: NCI-H1651
How it was run: (§1)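 Dosing by pin tool came one day after lung cancer cell lines were seeded in 1536-well plates, using either one drug or a fixed anchor-drug dose plus five library-drug doses (not always all listed) in √10 steps. After 5 days, nuclei were counted on 4× images. Relative viability is treated-well nuclei count divided by vehicle-well nuclei count, and values are medians of duplicate plates.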

NCI-H460 = system: NCI-H460
How it was run: as §1

NCI-H2170 = system: NCI-H2170
How it was run: as §1

NCI-H1944 = system: NCI-H1944
How it was run: as §1

RERF-LC-KJ = system: RERF-LC-KJ
How it was run: as §1

ChaGo-K-1 = system: ChaGo-K-1
How it was run: as §1

NCI-H2087 = system: NCI-H2087
How it was run: as §1

NCI-H2405 = system: NCI-H2405
How it was run: as §1

CAL-12T = system: CAL-12T
How it was run: as §1

NCI-H1734 = system: NCI-H1734
How it was run: as §1

LOU-NH91 = system: LOU-NH91
How it was run: as §1

LU99A = system: LU99A
How it was run: as §1

UMC-11 = system: UMC-11
How it was run: as §1

PC-3 [JPC-3] = system: PC-3 [JPC-3]
How it was run: as §1

ABC-1 = system: ABC-1
How it was run: as §1

NCI-H3122 = system: NCI-H3122
How it was run: as §1

HCC-78 = system: HCC-78
How it was run: as §1

HCC-366 = system: HCC-366
How it was run: as §1

NCI-H1395 = system: NCI-H1395
How it was run: as §1

NCI-H2228 = system: NCI-H2228
How it was run: as §1

EPLC-272H = system: EPLC-272H
How it was run: as §1

LC-2-ad = system: LC-2-ad
How it was run: as §1

NCI-H1755 = system: NCI-H1755
How it was run: as §1

NCI-H1793 = system: NCI-H1793
How it was run: as §1

For `COc1cc(N2CCC(C(N)=O)CC2)ccc1Nc1nc(N)c(Cl)c(Nc2ccccc2S(=O)(=O)C(C)C)n1` [HG-5-88-01] + O=C(c1cc(Cc2n[nH]c(=O)c3ccccc23)ccc1F)N1CCN(C(=O)C2CC2)CC1 [Olaparib] (partner 8 µM), the relative viability (NCI-H1651; first compound 0.04 µM) was 0.189, the relative viability (NCI-H1651; first compound 0.1265 µM) was 0.199 and the relative viability (NCI-H1651; first compound 0.4 µM) was 0.176. It also gave a relative viability (NCI-H1651; first compound 1.265 µM) of 0.234, a relative viability (NCI-H1651; first compound 4 µM) of 0.164 and a relative viability (NCI-H460; first compound 0.04 µM) of 0.415. The relative viability (NCI-H460; first compound 0.1265 µM) was 0.498, the relative viability (NCI-H460; first compound 0.4 µM) was 0.388 and the relative viability (NCI-H460; first compound 1.265 µM) was 0.356. For the same compound, the relative viability (NCI-H460; first compound 4 µM) was 0.503, the relative viability (NCI-H2170; first compound 0.04 µM) was 0.64 and the relative viability (NCI-H2170; first compound 0.1265 µM) was 0.669. It also gave a relative viability (NCI-H2170; first compound 0.4 µM) of 0.605, a relative viability (NCI-H2170; first compound 1.265 µM) of 0.53 and a relative viability (NCI-H2170; first compound 4 µM) of 0.545. The relative viability (NCI-H1944; first compound 0.04 µM) was 0.414, the relative viability (NCI-H1944; first compound 0.1265 µM) was 0.374 and the relative viability (NCI-H1944; first compound 0.4 µM) was 0.479. The relative viability (NCI-H1944; first compound 1.265 µM) was 0.466, the relative viability (NCI-H1944; first compound 4 µM) was 0.466 and the relative viability (RERF-LC-KJ; first compound 0.04 µM) was 0.937. It also gave a relative viability (RERF-LC-KJ; first compound 0.1265 µM) of 0.957, a relative viability (RERF-LC-KJ; first compound 0.4 µM) of 0.878 and a relative viability (RERF-LC-KJ; first compound 1.265 µM) of 0.884. The relative viability (RERF-LC-KJ; first compound 4 µM) was 0.519, the relative viability (ChaGo-K-1; first compound 0.04 µM) was 0.421 and the relative viability (ChaGo-K-1; first compound 0.1265 µM) was 0.418. For the same compound, the relative viability (ChaGo-K-1; first compound 0.4 µM) was 0.455, the relative viability (ChaGo-K-1; first compound 1.265 µM) was 0.421 and the relative viability (ChaGo-K-1; first compound 4 µM) was 0.393. The relative viability (NCI-H2087; first compound 0.04 µM) was 0.557, the relative viability (NCI-H2087; first compound 0.1265 µM) was 0.645 and the relative viability (NCI-H2087; first compound 0.4 µM) was 0.585. For the same compound, the relative viability (NCI-H2087; first compound 1.265 µM) was 0.536, the relative viability (NCI-H2087; first compound 4 µM) was 0.502 and the relative viability (NCI-H2405; first compound 0.04 µM) was 0.885. It also gave a relative viability (NCI-H2405; first compound 0.1265 µM) of 0.904, a relative viability (NCI-H2405; first compound 0.4 µM) of 0.807 and a relative viability (NCI-H2405; first compound 1.265 µM) of 0.524. It also gave a relative viability (NCI-H2405; first compound 4 µM) of 0.75, a relative viability (CAL-12T; first compound 0.04 µM) of 0.733 and a relative viability (CAL-12T; first compound 0.1265 µM) of 0.779. For the same compound, the relative viability (CAL-12T; first compound 0.4 µM) was 0.787, the relative viability (CAL-12T; first compound 1.265 µM) was 0.667 and the relative viability (CAL-12T; first compound 4 µM) was 0.319. The relative viability (NCI-H1734; first compound 0.04 µM) was 0.681, the relative viability (NCI-H1734; first compound 0.1265 µM) was 0.583 and the relative viability (NCI-H1734; first compound 0.4 µM) was 0.642. The relative viability (NCI-H1734; first compound 1.265 µM) was 0.54, the relative viability (NCI-H1734; first compound 4 µM) was 0.558 and the relative viability (LOU-NH91; first compound 0.04 µM) was 0.861. For the same compound, the relative viability (LOU-NH91; first compound 0.1265 µM) was 0.882, the relative viability (LOU-NH91; first compound 0.4 µM) was 0.733 and the relative viability (LOU-NH91; first compound 1.265 µM) was 0.514. The relative viability (LOU-NH91; first compound 4 µM) was 0.618, the relative viability (LU99A; first compound 0.04 µM) was 0.266 and the relative viability (LU99A; first compound 0.1265 µM) was 0.257. It also gave a relative viability (LU99A; first compound 0.4 µM) of 0.208, a relative viability (LU99A; first compound 1.265 µM) of 0.269 and a relative viability (LU99A; first compound 4 µM) of 0.315. The relative viability (UMC-11; first compound 0.04 µM) was 0.35, the relative viability (UMC-11; first compound 0.1265 µM) was 0.399 and the relative viability (UMC-11; first compound 0.4 µM) was 0.45. The relative viability (UMC-11; first compound 1.265 µM) was 0.428, the relative viability (UMC-11; first compound 4 µM) was 0.274 and the relative viability (PC-3 [JPC-3]; first compound 0.04 µM) was 1.15. For the same compound, the relative viability (PC-3 [JPC-3]; first compound 0.1265 µM) was 1.14, the relative viability (PC-3 [JPC-3]; first compound 0.4 µM) was 1.04 and the relative viability (PC-3 [JPC-3]; first compound 1.265 µM) was 0.379. The relative viability (PC-3 [JPC-3]; first compound 4 µM) was 0.506, the relative viability (ABC-1; first compound 0.04 µM) was 1 and the relative viability (ABC-1; first compound 0.1265 µM) was 0.494. For the same compound, the relative viability (ABC-1; first compound 0.4 µM) was 0.688, the relative viability (ABC-1; first compound 1.265 µM) was 0.686 and the relative viability (ABC-1; first compound 4 µM) was 0.589. For the same compound, the relative viability (NCI-H3122; first compound 0.04 µM) was 0.594, the relative viability (NCI-H3122; first compound 0.1265 µM) was 0.403 and the relative viability (NCI-H3122; first compound 0.4 µM) was 0.3. It also gave a relative viability (NCI-H3122; first compound 1.265 µM) of 0.285, a relative viability (NCI-H3122; first compound 4 µM) of 0.15 and a relative viability (HCC-78; first compound 0.04 µM) of 0.868. For the same compound, the relative viability (HCC-78; first compound 0.1265 µM) was 0.664, the relative viability (HCC-78; first compound 0.4 µM) was 0.511 and the relative viability (HCC-78; first compound 1.265 µM) was 0.302. It also gave a relative viability (HCC-78; first compound 4 µM) of 0.422, a relative viability (HCC-366; first compound 0.04 µM) of 0.385 and a relative viability (HCC-366; first compound 0.1265 µM) of 0.391. It also gave a relative viability (HCC-366; first compound 0.4 µM) of 0.352, a relative viability (HCC-366; first compound 1.265 µM) of 0.39 and a relative viability (HCC-366; first compound 4 µM) of 0.38. It also gave a relative viability (NCI-H1395; first compound 0.04 µM) of 0.499, a relative viability (NCI-H1395; first compound 0.1265 µM) of 0.467 and a relative viability (NCI-H1395; first compound 0.4 µM) of 0.48. For the same compound, the relative viability (NCI-H1395; first compound 1.265 µM) was 0.472, the relative viability (NCI-H1395; first compound 4 µM) was 0.487 and the relative viability (NCI-H2228; first compound 0.04 µM) was 0.538. It also gave a relative viability (NCI-H2228; first compound 0.1265 µM) of 0.36, a relative viability (NCI-H2228; first compound 0.4 µM) of 0.424 and a relative viability (NCI-H2228; first compound 1.265 µM) of 0.227. It also gave a relative viability (NCI-H2228; first compound 4 µM) of 0.253, a relative viability (EPLC-272H; first compound 0.04 µM) of 0.976 and a relative viability (EPLC-272H; first compound 0.1265 µM) of 0.785. For the same compound, the relative viability (EPLC-272H; first compound 0.4 µM) was 0.959, the relative viability (EPLC-272H; first compound 1.265 µM) was 0.495 and the relative viability (EPLC-272H; first compound 4 µM) was 0.0585. For the same compound, the relative viability (LC-2-ad; first compound 0.04 µM) was 0.691, the relative viability (LC-2-ad; first compound 0.1265 µM) was 0.692 and the relative viability (LC-2-ad; first compound 0.4 µM) was 0.725. It also gave a relative viability (LC-2-ad; first compound 1.265 µM) of 0.692, a relative viability (LC-2-ad; first compound 4 µM) of 0.721 and a relative viability (NCI-H1755; first compound 0.04 µM) of 0.811. The relative viability (NCI-H1755; first compound 0.1265 µM) was 0.869, the relative viability (NCI-H1755; first compound 0.4 µM) was 0.874 and the relative viability (NCI-H1755; first compound 1.265 µM) was 0.849. For the same compound, the relative viability (NCI-H1755; first compound 4 µM) was 0.928, the relative viability (NCI-H1793; first compound 0.04 µM) was 0.878 and the relative viability (NCI-H1793; first compound 0.1265 µM) was 0.84. The relative viability (NCI-H1793; first compound 0.4 µM) was 0.848, the relative viability (NCI-H1793; first compound 1.265 µM) was 0.651 and the relative viability (NCI-H1793; first compound 4 µM) was 0.847.
